Laboratory results as given in patent EP4680608B1, “2,6-DIHYDRO-7H-PYRAZOLO[3,4-C]PYRIDIN-7-ONE DERIVATIVES AS ANTI-MALARIAL AGENTS” (MMV Medicines for Malaria Venture, priority 2024, dated 2025).

Legend:
[1] = target: T1, P. falciparum DHODH (Plasmodium falciparum, UniProt Q08210); assay: DHODH inhibition, steady-state DCIP assay (PfDHODH); format: biochemical; conditions: recombinant PfDHODH, DCIP method, 25°C, 5 nM enzyme
T1 construct: His6 (N); made in house; host or cells: E. coli BL21-DE3 (phage-resistant)
T1 sequence (Q08210 158-569): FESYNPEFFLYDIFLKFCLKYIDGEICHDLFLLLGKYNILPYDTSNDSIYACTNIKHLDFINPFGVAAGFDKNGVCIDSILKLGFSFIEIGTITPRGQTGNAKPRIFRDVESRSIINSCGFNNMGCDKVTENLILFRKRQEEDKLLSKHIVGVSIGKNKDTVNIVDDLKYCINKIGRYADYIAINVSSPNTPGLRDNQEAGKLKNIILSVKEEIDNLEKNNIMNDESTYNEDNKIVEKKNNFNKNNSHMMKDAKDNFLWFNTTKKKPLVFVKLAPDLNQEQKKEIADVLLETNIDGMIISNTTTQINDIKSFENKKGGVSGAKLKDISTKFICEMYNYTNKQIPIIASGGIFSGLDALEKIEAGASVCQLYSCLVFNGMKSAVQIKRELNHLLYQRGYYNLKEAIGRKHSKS
Protocol: (§1) Compound stocks were prepared at 10-100 mM in DMSO, and diluted working stocks in DMSO were generated as appropriate. Compounds were plated from DMSO stocks in 96 well plate format using a Tecan D300e digital dispenser to generate a 3-fold dilution series over a concentration range of 0.0003 -100 µM (or 30 µM), yielding a final DMSO concentration of 1% in the assay. The top concentration used in the dose response was determined by the initial DMSO stock concentrations:100 µM for 100 mM stocks, and 30 µM for 10 mM stocks. Triplicate rate data were collected at each inhibitor concentration. Inhibitory IC50 values were determined by fitting the data to log (inhibitor) vs response equation Y = bottom + (top - bottom)/(1 + 10A ((X - Log IC50))) in GraphPad Prism.

[2] = system: P. falciparum 3D7; assay: Asexual blood-stage growth inhibition assay, SYBR green method; format: cell-based; conditions: Plasmodium falciparum, 3D7, 72 h, ring-stage 3D7 parasites
Protocol: Asexual blood-stage EC50 assays. […] Compound stocks prepared in DMSO were plated using a Tecan D300e automated low volume liquid handler. Ring-stage 3D7 or Dd2 parasites (60 µL cells) (2% hematocrit, 0.5% parasitemia, final DMSO concentration 0.5%) were added to plates, incubated with compounds over a range of concentrations in technical triplicate for 72 h at 37 °C, 5% CO2, and then frozen (-80°C) overnight before analysis. […] Data were analyzed by non-linear regression using GraphPad Prism to determine the EC50 by fitting to the built-in equation (log(inhibitor) vs response-variable slope with four parameters).

[3] = target: P. vivax DHODH (Plasmodium vivax, UniProt A5K1N1); assay: DHODH inhibition, steady-state DCIP assay (PvDHODH); format: biochemical; conditions: recombinant PvDHODH, DCIP method, 25°C, 5 nM enzyme; read-out: P. vivax DHODH (IC50)
P. vivax DHODH, sequence (A5K1N1 entry or part of it): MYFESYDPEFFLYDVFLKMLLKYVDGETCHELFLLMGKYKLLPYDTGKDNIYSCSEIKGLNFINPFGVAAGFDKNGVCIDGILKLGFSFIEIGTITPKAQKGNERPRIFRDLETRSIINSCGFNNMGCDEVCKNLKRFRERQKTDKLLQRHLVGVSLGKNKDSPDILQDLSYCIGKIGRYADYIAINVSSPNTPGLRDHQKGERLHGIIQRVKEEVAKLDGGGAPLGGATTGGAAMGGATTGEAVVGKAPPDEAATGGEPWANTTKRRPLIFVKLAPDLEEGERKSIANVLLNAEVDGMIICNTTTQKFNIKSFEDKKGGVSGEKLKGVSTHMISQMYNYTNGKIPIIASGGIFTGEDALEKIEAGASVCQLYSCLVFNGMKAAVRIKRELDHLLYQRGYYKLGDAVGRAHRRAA
Description: (§2) DOI: 10.1074/jbc.M206854200).
(§3) Proteins were expressed and purified on a Pharmacia FPLC using HisTrap HP column chromatography followed by gel filtration chromatography on a Pharmacia HiLoad 16/600 Superdex 200 column, and protein concentration determined based on OD280 using the previously described extinction coefficients (Kokkonda et al., 2020, J Med Chem, 63 (9), 4929-4956. DOI: 10.1021/acs.jmedchem.0c00311). Purified proteins were >95% pure based on SDS-PAGE analysis.
(§4) DHODH activity was monitored in a steady-state assay using the 2,6-dichloroindophenol (DCIP) method at 25°C in assay buffer (100 mM HEPES, pH 8.0, 150 mM NaCl, 1% glycerol, 0.1% Triton X-100 reduced) plus substrates 20 µM CoQD, 200 µM DHO, 120 µM DCIP, and 5 nM enzyme as previously described (Malmquist et al, 2008, Biochemistry, 47 (8), 2466-2475. DOI: 10.1021/bi702218c).
as §1, with “Prism. DSM265 ^2 was plated as an assay control in all studies.” for “Prism.”

[4] = target: T2, Human DHODH (Homo sapiens, UniProt Q02127); assay: DHODH inhibition, steady-state DCIP assay (human DHODH); format: biochemical; conditions: recombinant HsDHODH, DCIP method, 25°C, 5 nM enzyme; top concentration 100 µM or 30 µM
T2 construct: C-terminal His6-tagged HsDHODH residues 29-395 in pET-22b (start ^29MATGDE); His6 (C); made in house; host or cells: E. coli BL21-DE3 (phage-resistant)
T2 sequence (Q02127 29-395): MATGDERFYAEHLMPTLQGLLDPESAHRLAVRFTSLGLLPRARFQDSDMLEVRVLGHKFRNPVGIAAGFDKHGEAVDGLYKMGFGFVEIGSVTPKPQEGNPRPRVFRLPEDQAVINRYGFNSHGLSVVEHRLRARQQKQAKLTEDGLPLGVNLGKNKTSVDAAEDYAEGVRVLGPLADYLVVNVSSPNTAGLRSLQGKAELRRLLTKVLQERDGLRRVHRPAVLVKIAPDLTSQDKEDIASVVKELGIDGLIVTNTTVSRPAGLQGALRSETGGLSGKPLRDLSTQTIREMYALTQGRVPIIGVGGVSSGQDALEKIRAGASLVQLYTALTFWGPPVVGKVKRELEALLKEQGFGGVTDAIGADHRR
Description: as §2, §3, §4
as §1, with “Prism. DSM265 ^2 was plated as an assay control in all studies.” for “Prism.”

Compound | IC50 [1] | EC50 [2] | IC50 [3] | IC50 [4]
CC[C@@](O)(c1ccc(F)c(Cl)c1)c1c2ccn(C3CC3)c(=O)c2nn1C (single isomer, unassigned) [1-13] | 7 nM | 0.49 nM | 11 nM | 670 nM
CC[C@@](O)(c1cnc(C(F)(F)F)c(Cl)c1)c1c2ccn(C3CC3)c(=O)c2nn1C (single isomer, unassigned) [1-14] | 14 nM | 0.64 nM | 18 nM | 4200 nM
Cn1nc2c(=O)n(C3CC3)ccc2c1[C@](O)(c1cnc(C(F)(F)F)c(Cl)c1)C1CC1 (single isomer, unassigned) [1-16] | 16 nM | 3.2 nM | 23 nM | > 30000 nM
Cn1nc2c(=O)n(C3CC3)ccc2c1[C@](O)(c1ccc(F)c(Cl)c1)C1CC1 (single isomer, unassigned) [1-18] | 12 nM | 9 nM | 11 nM | 22000 nM
CCn1cc(F)c2c([C@@](O)(CC)c3ccc(C(F)(F)F)nc3)n(C)nc2c1=O (single isomer, unassigned) [1-24] | 24 nM | 1.2 nM | 33 nM | 6200 nM
Cn1nc2c(=O)n(C3CC3)ccc2c1[C@](O)(c1ccc(C(F)(F)F)nc1)C1CC1 (single isomer, unassigned) [1-26] | 46 nM | 6.7 nM | 48 nM | > 30000 nM
CCn1cc(C2CC2)c2c([C@H](O)c3cnc(C(F)(F)F)c(Cl)c3)n(C)nc2c1=O (single isomer, unassigned) [1-28] | 26 nM | 4.6 nM | 11 nM | > 100000 nM
CCn1cc(C)c2c([C@H](O)c3ccc(Cl)c(F)c3)n(C)nc2c1=O (single isomer, unassigned) [1-30] | 18 nM | 7 nM | 7.9 nM | 34000 nM
CCn1ccc2c([C@@](O)(CC)c3ccc(F)c(Cl)c3)n(C)nc2c1=O (single isomer, unassigned) [1-34] | 21 nM | 0.3 nM | 4.1 nM | 3900 nM
CCn1ccc2c([C@](C)(O)c3cnc(C(F)(F)F)c(Cl)c3)n(C)nc2c1=O (single isomer, unassigned) [1-36] | 45 nM | 1.4 nM | 9.2 nM | > 100000 nM
CCn1ccc2c([C@](O)(c3ccc(F)c(Cl)c3)C3CC3)n(C)nc2c1=O (single isomer, unassigned) [1-38] | 17 nM | 1.5 nM | 4.3 nM | 88000 nM
CCn1ccc2c([C@](C)(O)c3ccc(F)c(Cl)c3)n(C)nc2c1=O (single isomer, unassigned) [1-40] | 17 nM | 0.42 nM | 5.2 nM | 80000 nM
CCn1ccc2c([C@@](O)(CC)c3cnc(C(F)(F)F)c(Cl)c3)n(C)nc2c1=O (single isomer, unassigned) [1-42] | 13 nM | 0.49 nM | 7.9 nM | 41000 nM
CCn1ccc2c([C@](C)(O)c3ccc(C(F)(F)F)c(Cl)c3)n(C)nc2c1=O (single isomer, unassigned) [1-46] | 10 nM | 0.2 nM | 5.8 nM | 41000 nM
CCn1ccc2c([C@](O)(c3ccc(C(F)(F)F)nc3)C(C)C)n(C)nc2c1=O (single isomer, unassigned) [1-48] | 81 nM | 18 nM | 44 nM | > 100000 nM
CCn1ccc2c([C@@](O)(CC)c3ccc(C(F)(F)F)nc3)n(C)nc2c1=O (single isomer, unassigned) [1-50] | 54 nM | 1.5 nM | 27 nM | 46000 nM

Compound | IC50 [1] | EC50 [2] | IC50 [3] | IC50 [4]
CC[C@@](O)(c1cnc(C(F)(F)F)c(Cl)c1)c1c2cnn(C3CC3)c(=O)c2nn1C1CC1 (single isomer, unassigned) [2-1] | 29 nM | 12 nM | 10 nM | 2300 nM
CCn1nc2c(=O)n(C3CC3)ncc2c1[C@@](O)(CC)c1cnc(C(F)(F)F)c(Cl)c1 (single isomer, unassigned) [2-3] | 29 nM | 9.9 nM | 11 nM | 2700 nM
CC[C@@](O)(c1ccc(C(F)(F)F)c(C#N)c1)c1c2cnn(C3CC3)c(=O)c2nn1C (single isomer, unassigned) [2-5] | 19 nM | 1.3 nM | 19 nM | 4800 nM
Cn1nc2c(=O)n(C3CC3)ncc2c1[C@](O)(c1ccc(C(F)(F)F)c(C#N)c1)C1CC1 (single isomer, unassigned) [2-7] | 23 nM | 4.2 nM | 17 nM | > 30000 nM
Cn1nc2c(=O)n(C3CC3)ncc2c1[C@](O)(c1ccc(C(F)(F)F)c(Cl)c1)C1CC1 (single isomer, unassigned) [2-11] | 9.6 nM | 1.9 nM | 9.9 nM | > 30000 nM
CC[C@@](O)(c1ccc(C(F)(F)F)c(Cl)c1)c1c2cnn(C3CC3)c(=O)c2nn1C (single isomer, unassigned) [2-15] | 6.2 nM | 0.32 nM | 9.8 nM | 1700 nM
CC[C@@](O)(c1ccc(F)c(Cl)c1)c1c2cnn(C3CC3)c(=O)c2nn1C (single isomer, unassigned) [2-17] | 8.4 nM | 1.7 nM | 9.5 nM | 2500 nM
CCn1ncc2c([C@@](O)(CC)c3ccc(C(F)(F)F)c(Cl)c3)n(C)nc2c1=O (single isomer, unassigned) [2-19] | 6.9 nM | 0.35 nM | 2.9 nM | 11000 nM
Cn1nc2c(=O)n(C3CC3)cnc2c1[C@](C)(O)c1cnc(C(F)(F)F)c(Cl)c1 (single isomer, unassigned) [3-1] | 21 nM | 2.2 nM | 7.9 nM | > 30000 nM
Cn1nc2c(=O)n(C3CC3)cnc2c1[C@](O)(c1cnc(C(F)(F)F)c(Cl)c1)C1CC1 (single isomer, unassigned) [3-3] | 22 nM | 4 nM | 8.3 nM | > 30000 nM
CC[C@@](O)(c1ccc(C(F)(F)F)nc1)c1c2ncn(C3CC3)c(=O)c2nn1C (single isomer, unassigned) [3-7] | 27 nM | 1.6 nM | 55 nM | 14000 nM
Cn1nc2c(=O)n(C3CC3)cnc2c1[C@](O)(c1ccc(C(F)(F)F)nc1)C1CC1 (single isomer, unassigned) [3-9] | 48 nM | 12 nM | 59 nM | > 30000 nM
CCn1cnc2c([C@](C)(O)c3ccc(C(F)(F)F)c(C#N)c3)n(C)nc2c1=O (single isomer, unassigned) [3-11] | 32 nM | 0.52 nM | 9.4 nM | > 100000 nM
Cn1nc2c(=O)n(C3CC3)ccc2c1[C@](N)(c1cnc(C(F)(F)F)c(Cl)c1)C(F)(F)F (single isomer, unassigned) [4-1] | 21 nM | 2.6 nM | 13 nM | > 30000 nM
Cn1nc2c(=O)n(C3CC3)ccc2c1[C@](C)(N)c1ccc(C(F)(F)F)c(Cl)c1 (single isomer, unassigned) [4-4] | 12 nM | 0.61 nM | 9 nM | 15000 nM
